This is an account of results in US20080221134A1, “8-ALKYNYLXANTHINES AND DERIVATIVES” (priority 2006, published 2008).

Data set [1] concerns the target human A2A receptor (Homo sapiens, UniProt P29274). As to the kind of experiment: Human A2A receptor IC50/Imax (unpublished results). The class given is binding.
Data set [2] relates to Reserpine induced catalepsy. Put plainly: Acute Reserpine induced catalepsy test. The class given is in vivo, rat. The following applies: i.p. in DMSO, 0.1-10 mg/kg; listed as 8-(phenylethynyl)-DPMX. How it is done:
(§1) Animals were administered with Reserpine or CGS-21680 according to methods known to the skilled person in the art. These models and procedures are e.g. described by Ferré S. et al., Neurosci. Let., 1991, 130, 162; Ferré S. et al., Neuroscience, 1992, 51, 501; Kafka S. H. et al., Eur. J. Pharmacol., 1996, 295, 147; Rimondini R. et al., Neuropsychopharmacology, 1997, 17, 82 and are herein incorporated by reference. In the acute CGS-21680 induced catalepsy model (CGS model) the test compounds (TC, compounds according to the present invention) and CGS-21680 (i.p. 2 mg/kg) were administered 60 minutes before the start of the catalepsy bar measurement and behavioural testing described below (see also FIG. 1). In the acute Reserpine induced catalepsy model (RES model Resperine (subcutaneously, 3 mg/kg) was injected 24 h prior to the test compound application. Catalepsy bar measurement took place 60 minutes after test compound application (see FIG. 1). Test compounds were administered i.p. in DMSO in following doses (mg/kg): 0.1, 0.3, 1, 3, 10.
(§2) Dimethylsulfoxide (DMSO) was used as vehicle for the test compounds and Reserpine. Reserpine was dissolved in DMSO in a concentration of 3 mg/ml. A 10% (w/v) Cyclodextrin solution was used as vehicle for CGS-21680. CGS 21680 was dissolved in 10% (w/v) Cyclodextrine in a concentration of 2 mg/ml.
Apomorphine was used as a reference compound in the Reserpine induced catalepsy model. Apomorphine injection solution was diluted with purified water to a concentration of 0.3 mg/ml. The solution was administered subcutaneously (s.c.) in a volume of 1 ml/kg (0.3 mg/kg) 20 minutes before the begin of testing after Reserpine pre-treatment (25 hours prior to testing).
The catalepsy bar after Reserpine administration was measured (CAT) as follows: The rat was placed with its forepaws on a log of wood. […] The animal was tested for three trials and the time for each trial was noted. The following parameters were calculated: maximum time to descend (s) and median time to descend (s). […]
(§3) All statistical tests were performed two tailed with a value of p<0.05 considered as significant.
(§4) To assess the effects of CGS-21680 and Reserpine pre-treatment compared to vehicle treated controls statistical comparisons between the test groups were performed using a U test statistic.
To assess the effects of test compounds on CGS-21680 and Reserpine pre-treated animals correlation analyses including animals from test groups and the respective test compound-treated groups were performed.
Additionally, parametric and non-parametric comparisons for the median catalepsy measure were performed to assess the reliability of the method. In case of parametric testing a GLM analyses was performed including animals from a control group (only vehicle treated animals) and the respective test compound-treated groups with dose as a categorical factor. In case of a significant result, a Dunnett's post hoc test was performed between the according test compound groups and a control group as reference group. In case of non-parametric testing a Kruskal-Wallis H-test was performed including animals from a control group and the respective test compound groups. In case of a significant result single U-test comparisons were performed between a control group and the groups treated with different doses of the test compound.

Data set [3] can be described thus: Water solubility (statement). The class given is physicochemical. The following applies: listed as 8-(phenylethynyl)-DMPX.
For data set [4], the system named is CGS-21680 induced catalepsy. As to the kind of experiment: Acute CGS-21680 induced catalepsy test. The class given is in vivo, rat. The conditions noted are these: i.p. in DMSO, 0.1-10 mg/kg; listed as 8-(phenylethynyl)-DPMX. As for the experimental part: as §1, §2
Caffeine was used as a reference compound in the CGS-21680 induced catalepsy model. A caffeine solution was prepared with water for injection purposes to a concentration of 30 mg/ml. The solution was administered intraperitoneally in a volume of 1 ml/kg (30 mg/kg) 30 minutes before the beginning of testing and after CGS-21680 pre-treatment (1 hour prior to testing).
The catalepsy bar after CGS-21680 administration was measured (CAT) as follows: The rat was placed with its forepaws on a log of wood. […] If the animal descended faster than 1 second, the trial was regarded as invalid. If more than 20 trials were rated as invalid, the values of all uncompleted trials were noted as 0. The animal was tested until five trials had been completed and the time for each trial was noted. Only the values of the last three trials were used for the analysis. The following parameters were calculated: maximum time to descend (s) and median time to descend (s).
Behavioural observation (BO) included the measurement of the body tone, inclined plane and grip strength.
The rat is taken in the hand of the observer and the animal's body tone is rated as normal, soft or hard. The rating is performed immediately after taking the animal from its home cage before performance of catalepsy testing. The following parameters were calculated: mean occurrence of hard body tone and mean occurrence of soft body tone.
The rat is horizontally placed to an inclined plane for a maximum time of 30 seconds. Time to reach bottom or top is measured. […] The test is performed after catalepsy testing. Time to leave the inclined plane(s) was measured.
The rat is put on a grip and the observer pulls the animal back on his tail. The strength (fore paws and hind paws) by which it holds on the grid is scored as grasping and pulling, grasping without pulling or no grasping. The test is performed after the inclined plane test. The following parameters were calculated: mean score of fore paw grip strength and mean score of hind paw grip strength.
as §3, §4
To assess the effects of test compounds on CGS-21680 and Reserpine pre-treated animals correlation analyses including animals from test groups and the respective test compound-treated groups were performed. […]

Data set [5] addresses T1, MAO-B (Homo sapiens, UniProt P27338).
T1 sequence (P27338 1-520): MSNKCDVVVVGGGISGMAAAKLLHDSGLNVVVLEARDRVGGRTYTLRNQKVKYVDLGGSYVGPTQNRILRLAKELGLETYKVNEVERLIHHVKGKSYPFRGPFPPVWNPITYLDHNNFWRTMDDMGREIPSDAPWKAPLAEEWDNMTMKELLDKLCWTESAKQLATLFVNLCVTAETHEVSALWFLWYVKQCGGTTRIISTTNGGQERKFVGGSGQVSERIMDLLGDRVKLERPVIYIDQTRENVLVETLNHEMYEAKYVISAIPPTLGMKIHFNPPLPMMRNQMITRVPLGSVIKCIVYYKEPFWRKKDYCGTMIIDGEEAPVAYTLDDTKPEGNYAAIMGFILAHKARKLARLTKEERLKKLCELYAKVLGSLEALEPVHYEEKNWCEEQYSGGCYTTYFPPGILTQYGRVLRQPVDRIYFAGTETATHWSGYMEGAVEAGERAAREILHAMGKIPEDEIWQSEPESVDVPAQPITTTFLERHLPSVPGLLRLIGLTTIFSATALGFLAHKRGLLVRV
As to the kind of experiment: MAO-B inhibition. The class given is biochemical.

Data set [6] has as its target T2, Adenosine A2B (Homo sapiens, UniProt P29275).
T2 construct: expressed in transfected cells; host or cells: HEK-293 cells
T2 sequence (P29275 1-332): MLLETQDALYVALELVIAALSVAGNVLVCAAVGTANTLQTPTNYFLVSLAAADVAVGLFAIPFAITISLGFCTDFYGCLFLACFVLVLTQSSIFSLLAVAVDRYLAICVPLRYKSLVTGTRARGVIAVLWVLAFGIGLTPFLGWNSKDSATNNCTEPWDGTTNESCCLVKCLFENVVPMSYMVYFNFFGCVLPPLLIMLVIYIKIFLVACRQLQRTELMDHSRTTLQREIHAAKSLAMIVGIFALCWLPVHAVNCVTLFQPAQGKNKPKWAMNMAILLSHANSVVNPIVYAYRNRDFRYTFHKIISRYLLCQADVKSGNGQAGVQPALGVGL
As to the kind of experiment: Radioligand binding assay 2, Adenosine A2B. The following applies: at 1 μmol/l; human recombinant HEK-293 cells, [3H]MRS 1754; read-out: A2B AR % inhibition of agonist binding. How it is done: (§5) The assays were performed under the conditions described below. The literature references are also provided for each assay:
The adenosine A2B radioligand binding assay used is further described in Stehle J. H. et al., Mol. Endocrinol., 1992, 6, 384 and is incorporated herein by reference.
(§6) The specific ligand binding to the receptors is defined as the difference between the total binding and the non-specific binding determined in the presence of an excess of unlabelled ligand. The results are expressed as a percent of control specific binding and as percent inhibition of control specific binding obtained in the presence of the test compounds.

Data set [7] concerns the target T3, Adenosine A1 (Homo sapiens, UniProt P30542).
T3 sequence (P30542 1-326): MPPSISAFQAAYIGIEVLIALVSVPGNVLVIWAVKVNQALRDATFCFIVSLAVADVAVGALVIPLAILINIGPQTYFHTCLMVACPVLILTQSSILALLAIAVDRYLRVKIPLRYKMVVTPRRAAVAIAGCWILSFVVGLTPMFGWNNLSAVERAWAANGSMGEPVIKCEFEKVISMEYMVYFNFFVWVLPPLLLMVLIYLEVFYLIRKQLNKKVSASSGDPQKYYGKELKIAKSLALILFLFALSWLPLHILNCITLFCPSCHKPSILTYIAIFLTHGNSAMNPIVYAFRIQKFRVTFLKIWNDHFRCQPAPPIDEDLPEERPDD
As to the kind of experiment: Radioligand binding assay 2, Adenosine A1. Also on record: expressed in transfected cells; host or cells: CHO cells. The following applies: at 1 μmol/l; human recombinant CHO cells, [3H]CCPA; read-out: A1 AR % inhibition of agonist binding. How it is done: as §5
The adenosine A1 radioligand binding assay used is further described in Rivkees S. A. et al., J. Biol. Chem., 1995, 270, 20485 and is incorporated herein by reference.
as §6

Data set [8] deals with Adenosine A2A (Homo sapiens, UniProt P29274). As to the kind of experiment: Radioligand binding assay 2, Adenosine A2A. The conditions noted are these: at 1 μmol/l; human recombinant HEK-293 cells, [3H]CGS 21680; read-out: A2A AR % inhibition of agonist binding. On the set-up: expressed in transfected cells; host or cells: HEK-293 cells. As for the experimental part: as §5
The adenosine A2A radioligand binding assay used is further described in Luthin D. R. et al., Mol. Pharmacol., 1995, 47 and is incorporated herein by reference.
as §6

The target of data set [9] is T4, Adenosine A3 (Homo sapiens, UniProt P0DMS8).
T4 construct: expressed in transfected cells; host or cells: HEK-293 cells
T4 sequence (P0DMS8 1-318): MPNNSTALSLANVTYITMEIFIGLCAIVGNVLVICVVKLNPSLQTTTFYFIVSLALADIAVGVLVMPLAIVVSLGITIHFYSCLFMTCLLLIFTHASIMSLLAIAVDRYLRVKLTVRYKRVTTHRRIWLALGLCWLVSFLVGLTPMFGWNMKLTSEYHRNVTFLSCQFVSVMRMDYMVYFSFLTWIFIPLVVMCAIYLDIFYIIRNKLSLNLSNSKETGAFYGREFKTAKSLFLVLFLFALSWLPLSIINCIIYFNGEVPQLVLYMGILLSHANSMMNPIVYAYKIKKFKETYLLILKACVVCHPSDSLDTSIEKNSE
As to the kind of experiment: Radioligand binding assay 2, Adenosine A3. The following applies: at 1 μmol/l; human recombinant HEK-293 cells, [125I]AB-MECA; read-out: A3 AR % inhibition of agonist binding. As for the experimental part:
as §5
The adenosine A3 radioligand binding assay used is further described in Salvatore C. A. et al., Proc. Natl. Acad. Sci. USA, 1993, 90, 10365 and is incorporated herein by reference.
as §6

Each structure is given as a SMILES string.

Chain of human A2A receptor (P29274 whole entry): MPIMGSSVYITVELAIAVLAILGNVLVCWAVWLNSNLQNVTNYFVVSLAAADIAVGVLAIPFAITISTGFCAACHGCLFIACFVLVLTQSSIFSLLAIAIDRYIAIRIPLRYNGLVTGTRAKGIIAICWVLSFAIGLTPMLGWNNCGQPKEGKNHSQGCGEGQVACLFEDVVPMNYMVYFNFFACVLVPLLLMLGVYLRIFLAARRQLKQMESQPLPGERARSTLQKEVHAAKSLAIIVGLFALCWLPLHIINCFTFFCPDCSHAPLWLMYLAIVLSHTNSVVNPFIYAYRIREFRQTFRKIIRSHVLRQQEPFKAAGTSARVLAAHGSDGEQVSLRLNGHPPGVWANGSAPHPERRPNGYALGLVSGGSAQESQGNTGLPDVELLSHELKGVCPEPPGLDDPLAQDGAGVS
Chain of Adenosine A2A (P29274 whole entry): as above

As for `C#CCn1c(=O)c2c(nc(C#Cc3ccccc3)n2C)n(C)c1=O`, in [1], the IC50 was more than 300 nM and the “Imax at the human receptor” value is recorded as “about 37%”. Also, the “effect on catalepsy time in acute Reserpine induced catalepsy model” value in data set [2] is “inactive”. Moreover, the “water solubility (in words)” value in data set [3] is recorded as “low solubility”. Also, the “effect on catalepsy time in acute CGS-21680 induced catalepsy model” value in [4] is “inactive”.

For the compound `C#CCn1c(=O)c2c(nc(C#Cc3cccc(OC(C)=O)c3)n2C)n(C)c1=O` [8-(3-Acetoxyphenylethynyl)-3,7-dimethyl-1-prop-2-ynyl-3,7-dihydropurine-2,6-dione], the melting point worked out at 238 °C.

Compound `C#CCn1c(=O)c2c(nc(C#Cc3cccc(O)c3)n2C)n(C)c1=O` [8-(3-Hydroxyphenylethynyl)-3,7-dimethyl-1-prop-2-ynyl-3,7-dihydropurine-2,6-dione] showed a melting point of 271 °C.

Turning to `C#CCn1c(=O)c2c(nc(C#Cc3cccc(Br)c3)n2C)n(C)c1=O` [8-(3-bromophenylethynyl)-3,7-dimethyl-1-prop-2-ynyl-3,7-dihydropurine-2,6-dione], the Mao-B-inhibition values entry in data set [5] is “submikromolar range”.

On to `C#CCn1c(=O)c2c(nc(C#Cc3cccc(Cl)c3)n2C)n(C)c1=O` [8-(3-chlorophenylethynyl)-3,7-dimethyl-1-prop-2-ynyl-3,7-dihydropurine-2,6-dione], for which the Mao-B-inhibition values result in data set [5] is “submikromolar range”.

Consider `C#CCn1c(=O)c2c(nc(C#Cc3cccc(C)c3)n2C)n(CCCO)c1=O` [drawing 613], for which the inhibition at 1 µM in [6] turned out to be 17%; in [7], 43%; in data set [8], 92%; in data set [9] it was 54%.
